Laboratory results as given in US20240180900A1, “COMPOUNDS AND METHODS FOR THE TARGETED DEGRADATION OF ANDROGEN RECEPTOR” (Arvinas Operations, Inc., priority 2022, published 2024).
Where two headings read alike, the source gives them in different places.

Tests used:
[1] = test system: GSPT1, Aiolos, Ikaros, CK1α, and SALL4; assay: cereblon neomorphic substrate degradation in Ramos and SK-N-DZ cells; format: cell-based; settings: 1 μM
[2] = preliminary PK in mCRPC participants (Phase 1/2); format: in vivo, human
Method: A chiral bioanalytical method by LC-MS/MS has been developed to characterize the PK of Compound A. Pharmacokinetic analyses were performed using noncompartmental analysis methods.
Mean steady state peak/trough ratio is less than 2, which indicates minimal fluctuation in plasma concentrations once steady state is achieved. Steady state occurs within 3 weeks into treatment.
An ongoing, open-label, Phase 1/2 study in male participants with mCRPC. The Phase 1 dose escalation investigated Compound A doses of 20 mg, 40 mg, 80 mg, 100 mg, 160 mg, 200 mg, 320 mg, 400 mg, 480 mg, and 500 mg administered QD. […] Doses of 100 mg QD and 300 mg QD were selected for the Phase 2 cohort expansion.

[3] = safety in healthy volunteers (food/PPI study)
Description: The primary endpoints were AUCinf and Cmax. Additional parameters measured included AUClast and Tmax.
The study consisted of 2 independent cohorts: an open-label, randomized, 2-period, crossover Fed/Fasted Cohort to determine food effects; and an open-label, 2-period, fixed sequence PPI Cohort to evaluate interactions with esomeprazole.

[4] = test system: PSA; assay: Phase 1/2 trial in mCRPC: PSA response; format: in vivo, human
Method: Evaluable analysis set include all Compound A treated participants with baseline PSA assessment and at least a C1D28 or later postbaseline PSA assessment. A PSA90 and PSA50 and PSA30 response is defined as a =90% or 50% or 30% decline in PSA from baseline PSA value, respectively.
Patients in the Phase 1 studies were administered from 40 mg to 500 mg Compound A once daily. Patients in the Phase 2 studies were administered 100 mg or 300 mg Compound A once daily.
In the Phase 1 and interim Phase 2 trial, AR LBD mutations were present in 28% (13 of 47) of patients' tumors. […] (FIG. 7; AR: androgen receptor; LBD: ligand-binding domain; PSA: prostate-specific antigen; PSA30: best PSA declines ≥30%; PSA50: best PSA declines ≥50%; H875: H875Y; T878: T878A or T878S.)
Evaluable analysis set include all Compound A treated participants with baseline PSA assessment and at least a C1D28 or later postbaseline PSA assessment. A PSA90 and PSA50 and PSA30 response is defined as =90% or 50% or 30% decline in PSA from baseline PSA value.

[5] = target: T1, AR W742L (Homo sapiens, UniProt P10275, W742L); assay: AR degradation in T-Rex-293 cell line, W742L; format: cell-based; settings: T-Rex-293, ELISA
T1 construct: expressed in transfected cells; host or cells: T-REx-293
T1 sequence (P10275 whole entry W742L): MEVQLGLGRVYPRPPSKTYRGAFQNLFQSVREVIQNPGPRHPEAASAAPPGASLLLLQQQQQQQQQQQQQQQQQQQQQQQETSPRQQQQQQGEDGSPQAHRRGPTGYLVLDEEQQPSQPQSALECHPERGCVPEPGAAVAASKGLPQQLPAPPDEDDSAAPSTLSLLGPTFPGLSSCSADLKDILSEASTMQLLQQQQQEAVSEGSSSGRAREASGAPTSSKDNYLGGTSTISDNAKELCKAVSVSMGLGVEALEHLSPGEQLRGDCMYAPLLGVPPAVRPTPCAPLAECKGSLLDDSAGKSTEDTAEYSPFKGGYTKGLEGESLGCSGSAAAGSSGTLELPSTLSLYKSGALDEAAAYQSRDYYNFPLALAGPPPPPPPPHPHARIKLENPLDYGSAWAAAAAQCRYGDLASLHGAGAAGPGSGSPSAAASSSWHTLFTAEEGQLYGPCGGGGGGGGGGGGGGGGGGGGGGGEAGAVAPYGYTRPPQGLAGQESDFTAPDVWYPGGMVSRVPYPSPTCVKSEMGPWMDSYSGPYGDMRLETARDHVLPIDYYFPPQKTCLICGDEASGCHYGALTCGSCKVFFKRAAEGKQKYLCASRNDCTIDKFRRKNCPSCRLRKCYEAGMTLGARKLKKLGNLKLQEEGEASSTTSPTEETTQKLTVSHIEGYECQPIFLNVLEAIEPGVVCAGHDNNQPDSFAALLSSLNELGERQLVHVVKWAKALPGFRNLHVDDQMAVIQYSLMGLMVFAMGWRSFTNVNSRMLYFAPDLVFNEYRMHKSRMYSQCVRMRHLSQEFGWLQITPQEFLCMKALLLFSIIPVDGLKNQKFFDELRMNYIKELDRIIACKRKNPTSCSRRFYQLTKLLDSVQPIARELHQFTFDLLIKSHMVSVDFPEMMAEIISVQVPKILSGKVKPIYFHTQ
Description: (§1) FIG. 3 is a graph showing Compound A's ability to degrade clinically relevant mutated forms AR.
(§2) To assess the ability of Compound A to degrade variants of the AR, vectors expressing wild-type AR or mutant AR proteins harboring clinically observed mutations in the ligand binding domain (13 with single amino acid changes or 4 with 2 amino acid changes) (Azad A. A., Volik S. V., Wyatt A. W., et al. Androgen receptor gene aberrations in circulating cell-free DNA: biomarkers of therapeutic resistance in castration-resistant prostate cancer. Clin Cancer Res. 2015; 21:2315-2324; Robinson D., Van Allen E. M., Wu Y. M., et al. Integrative clinical genomics of advanced prostate cancer. Cell. 2015; 161:1215-1228; Ledet E. M., Lilly M. B., Sonpavde G., et al. Comprehensive analysis of AR alterations in circulating tumor DNA from patients with advanced prostate cancer. Oncologist.

[6] = test system: mutant AR proteins (ligand binding domain mutations); assay: degradation of clinically relevant AR point mutants in HEK293 or T-REx-293 cells; format: cell-based, human; settings: stably transfected
Method: Plasmids expressing AR WT or the indicated AR mutants were stably transfected into HEK293 cells. Each cell line was treated with indicated concentrations of Compound A for 24 hours. AR levels were determined by AR ELISA without background subtraction. […]
as §2

[7] = target: T2, AR D891H (Homo sapiens, UniProt P10275, D891H); assay: AR degradation in T-Rex-293 cell line, D891H (western blot); format: cell-based; settings: T-Rex-293, western blot
T2 construct: expressed in transfected cells; host or cells: T-REx-293
T2 sequence (P10275 whole entry D891H): as the sequence (P10275 whole entry W742L) above, with L742W, D891H counted along it
Description: as §1, §2

[8] = Fed/Fasted Cohort, 200 mg, 14 healthy participants
[9] = healthy volunteer study, both cohorts

## COc1cc(O[C@H]2C(C)(C)[C@H](NC(=O)c3ccc(N4CCC(CN5CCN(c6ccc(C(=O)N[C@H]7CCC(=O)NC7=O)c(F)c6)CC5)CC4)cc3)C2(C)C)ccc1C#N [Compound A, 4-(4-((1-(4-(((1R,3R)-3-(4-cyano-3-methoxyphenoxy)-2,2,4,4-tetramethylcyclobutyl)carbamoyl)phenyl)piperidin-4-yl)methyl)piperazin-1-yl)-N—((S)-2,6-dioxopiperidin-3-yl)-2-fluorobenzamide]
[1]
  degradation of GSPT1, Aiolos, Ikaros, CK1α, and SALL4: did not lead to degradation
[2]; QD dosing
  Mean steady state peak/trough ratio: less than 2
  time to steady state: ≤ 3 weeks
[2]; human, plasma, oral, 20 mg, 20 mg QD, individual value (n = 1), read-out: AUC0-24 Day 1
  AUC(0-t): 178 ng·h/mL
[2]; human, plasma, oral, 20 mg, 20 mg QD, individual value (n = 1), read-out: AUC0-24 Day 21
  AUC(0-t): 997 ng·h/mL
[2]; human, plasma, oral, 20 mg, 20 mg QD, individual value (n = 1), read-out: Cmax Day 1
  Cmax: 11.1 ng/mL
[2]; human, plasma, oral, 20 mg, 20 mg QD, individual value (n = 1), read-out: Cmax Day 21
  Cmax: 44.1 ng/mL
[2]; human, plasma, oral, 40 mg, 40 mg QD, individual value (n = 1), read-out: AUC0-24 Day 1
  AUC(0-t): 314 ng·h/mL
[2]; human, plasma, oral, 40 mg, 40 mg QD, individual value (n = 1), read-out: AUC0-24 Day 21
  AUC(0-t): 1300 ng·h/mL
[2]; human, plasma, oral, 40 mg, 40 mg QD, individual value (n = 1), read-out: Cmax Day 1
  Cmax: 19.1 ng/mL
[2]; human, plasma, oral, 40 mg, 40 mg QD, individual value (n = 1), read-out: Cmax Day 21
  Cmax: 60.3 ng/mL
[2]; human, plasma, oral, 80 mg, 80 mg QD, individual value (n = 1), read-out: AUC0-24 Day 1
  AUC(0-t): 432 ng·h/mL
[2]; human, plasma, oral, 80 mg, 80 mg QD, individual value (n = 1), read-out: AUC0-24 Day 21
  AUC(0-t): 3110 ng·h/mL
[2]; human, plasma, oral, 80 mg, 80 mg QD, individual value (n = 1), read-out: Cmax Day 1
  Cmax: 22.2 ng/mL
[2]; human, plasma, oral, 80 mg, 80 mg QD, individual value (n = 1), read-out: Cmax Day 21
  Cmax: 139 ng/mL
[2]; male, human, plasma, oral, 100 mg, 100 mg QD (N=6), Cycle 1 Day 21, read-out: mean steady-state AUC0-24
  AUC(0-t): 4610 ng·h/mL
[2]; male, human, plasma, oral, 100 mg, 100 mg QD, Mean (CV %), read-out: AUC0-24 Day 1
  AUC(0-t): 816 ng·h/mL
[2]; male, human, plasma, oral, 100 mg, 100 mg QD, Mean (CV %), read-out: AUC0-24 Day 21
  AUC(0-t): 4610 ng·h/mL
[2]; male, human, plasma, oral, 100 mg, 100 mg QD, Mean (CV %), read-out: Cmax Day 1
  Cmax: 45.1 ng/mL
[2]; male, human, plasma, oral, 100 mg, 100 mg QD, Mean (CV %), read-out: Cmax Day 21
  Cmax: 233 ng/mL
[2]; male, human, plasma, oral, 160 mg, 160 mg QD, Mean (CV %), read-out: AUC0-24 Day 1
  AUC(0-t): 2050 ng·h/mL
[2]; male, human, plasma, oral, 160 mg, 160 mg QD, Mean (CV %), read-out: AUC0-24 Day 21
  AUC(0-t): 8450 ng·h/mL
[2]; male, human, plasma, oral, 160 mg, 160 mg QD, Mean (CV %), read-out: Cmax Day 1
  Cmax: 125 ng/mL
[2]; male, human, plasma, oral, 160 mg, 160 mg QD, Mean (CV %), read-out: Cmax Day 21
  Cmax: 445 ng/mL
[2]; male, human, plasma, oral, 200 mg, 200 mg QD, Mean (CV %), read-out: AUC0-24 Day 1
  AUC(0-t): 1830 ng·h/mL
[2]; male, human, plasma, oral, 200 mg, 200 mg QD, Mean (CV %), read-out: AUC0-24 Day 21
  AUC(0-t): 11500 ng·h/mL
[2]; male, human, plasma, oral, 200 mg, 200 mg QD, Mean (CV %), read-out: Cmax Day 1
  Cmax: 110 ng/mL
[2]; male, human, plasma, oral, 200 mg, 200 mg QD, Mean (CV %), read-out: Cmax Day 21
  Cmax: 559 ng/mL
[2]; male, human, plasma, oral, 300 mg, 300 mg QD, Mean (CV %), read-out: AUC0-24 Day 1
  AUC(0-t): 2220 ng·h/mL
[2]; male, human, plasma, oral, 300 mg, 300 mg QD, Mean (CV %), read-out: AUC0-24 Day 21
  AUC(0-t): 14900 ng·h/mL
[2]; male, human, plasma, oral, 300 mg, 300 mg QD, Mean (CV %), read-out: Cmax Day 1
  Cmax: 119 ng/mL
[2]; male, human, plasma, oral, 300 mg, 300 mg QD, Mean (CV %), read-out: Cmax Day 21
  Cmax: 672 ng/mL
[2]; male, human, plasma, oral, 320 mg, 320 mg QD, Mean (CV %), read-out: AUC0-24 Day 1
  AUC(0-t): 3990 ng·h/mL
[2]; male, human, plasma, oral, 320 mg, 320 mg QD, Mean (CV %), read-out: AUC0-24 Day 21
  AUC(0-t): 23100 ng·h/mL
[2]; male, human, plasma, oral, 320 mg, 320 mg QD, Mean (CV %), read-out: Cmax Day 1
  Cmax: 223 ng/mL
[2]; male, human, plasma, oral, 320 mg, 320 mg QD, Mean (CV %), read-out: Cmax Day 21
  Cmax: 1070 ng/mL
[2]; male, human, plasma, oral, 400 mg, 400 mg QD, Mean (CV %), read-out: AUC0-24 Day 1
  AUC(0-t): 3350 ng·h/mL
[2]; male, human, plasma, oral, 400 mg, 400 mg QD, Mean (CV %), read-out: AUC0-24 Day 21
  AUC(0-t): 11900 ng·h/mL
[2]; male, human, plasma, oral, 400 mg, 400 mg QD, Mean (CV %), read-out: Cmax Day 1
  Cmax: 232 ng/mL
[2]; male, human, plasma, oral, 400 mg, 400 mg QD, Mean (CV %), read-out: Cmax Day 21
  Cmax: 526 ng/mL
[2]; male, human, plasma, oral, 480 mg, 480 mg QD, Mean (CV %), read-out: AUC0-24 Day 1
  AUC(0-t): 2540 ng·h/mL
[2]; male, human, plasma, oral, 480 mg, 480 mg QD, Mean (CV %), read-out: AUC0-24 Day 21
  AUC(0-t): 12900 ng·h/mL
[2]; male, human, plasma, oral, 480 mg, 480 mg QD, Mean (CV %), read-out: Cmax Day 1
  Cmax: 145 ng/mL
[2]; male, human, plasma, oral, 480 mg, 480 mg QD, Mean (CV %), read-out: Cmax Day 21
  Cmax: 644 ng/mL
[2]; male, human, plasma, oral, 500 mg, 500 mg QD, Mean (CV %), read-out: AUC0-24 Day 1
  AUC(0-t): 3590 ng·h/mL
[2]; male, human, plasma, oral, 500 mg, 500 mg QD, Mean (CV %), read-out: AUC0-24 Day 21
  AUC(0-t): 15000 ng·h/mL
[2]; male, human, plasma, oral, 500 mg, 500 mg QD, Mean (CV %), read-out: Cmax Day 1
  Cmax: 203 ng/mL
[2]; male, human, plasma, oral, 500 mg, 500 mg QD, Mean (CV %), read-out: Cmax Day 21
  Cmax: 703 ng/mL
[2]; male, human, plasma, oral, QD dosing, mCRPC participants, read-out: effective mean T1/2
  half-life: 83 to 111 h
[2]; male, human, plasma, oral administration, mCRPC participants, read-out: median Tmax
  Tmax: ~8 h
[3]; Fed/Fasted Cohort
  severity of TEAEs: All TEAEs were Grade 1
[3]; [8]
  headache (TEAE): 4 (28.6%) participants
  participants reporting TEAEs: 5 (35.7%) participants
  participants with at least one TEAE considered related to Compound A: 3 (21.4%) participants
[3]; Fed/Fasted Cohort, Grade 1
  TRAE dizziness: 1 participant
  TRAE fatigue: 1 participant
  TRAE headache: 2 participants
[3]; PPI Cohort
  TEAEs of Grade 3 or higher: no TEAEs of Grade 3 or higher
[3]; PPI Cohort, 300 mg, 16 healthy participants
  participants reporting TEAEs: 8 (50.0%) participants
[3]; PPI Cohort, pain in the extremity and CRP increased
  participants with Grade 2 events: 2 (12.5%) participants
[3]; healthy male participants, fasting, fed, or with esomeprazole
  tolerability of a single oral dose: generally well tolerated
[3]; [9]
  deaths, SAEs, discontinuations due to AEs: no deaths, SAEs, or participant discontinuations due to AEs
  laboratory results, vital signs, physical examinations, 12-lead ECGs, C-SSRS: no clinically significant findings
[4]; FIG. 14
  PSA decline in patient with mCRPC with wild-type AR: Deep PSA decline
[4]; Phase 1 and interim Phase 2
  patients with AR LBD mutations achieving PSA50: 42%
[4]; as the trial progressed, 7 of 17
  patients with AR LBD mutations achieving PSA50: 41%
[5]
  DC50: 2.3 nM
[6]
  degradation of all clinically relevant AR point mutants tested vs wild-type AR: comparable to that observed for wild-type AR
[7]
  DC50: 3.9 nM
